Experimental data reported in patent US12161698B2, “Synthetic platelets” (CASE WESTERN RESERVE UNIVERSITY, priority 2011, dated 2024).
No end group written: not given here.

Key:
[1] = test system: FeCl3-induced carotid artery thrombus; experiment: Targeted thrombolysis in vivo (delay of vessel occlusion, FeCl3 carotid thrombosis); design: species or system mouse; conditions: ~400 IU SK where loaded, injected ~5 min after thrombus induction
Text: For targeted thrombolytic capacity assessment, Rhodamine 6G solution was first injected into the right jugular vein of the mouse to render direct fluorescent labeling of circulating platelets and the FeCl3-induced thrombus was created in the carotid as before, such that the formation of the thrombus and extent of vessel occlusion can be observed directly by monitoring the fluorescent platelets in the artery with intra-vital microscopy. For this, the carotid artery was thrombosed as before and […] of Rhodamine 6G solution was injected into the right jugular vein that results in direct fluorescent labeling of circulating platelets. This allows for imaging platelet-rich thrombus formation (and lysis) in real time. […] The effect of these various treatments on delaying the thrombus growth over time was imaged by intravital microscopy, with images recorded for 10 s every minute for the first 10 min and then 10 s every other minute until the end of the experiment. […] The end points of the experiment were: 1) when blood flow had ceased for >30 s due to vessel occlusion, or 2) if occlusion was not observed in 30 min after SK (free or vesicle-encapsulated) administration. […]

[2] = test system: platelet-rich green fluorescent fibrin clot; experiment: In vitro thrombolytic capacity in PPFC on platelet-rich fluorescent fibrin clots; assay type: cell-based; conditions: flow over clot
Protocol: Glass microscope slides were incubated with collagen suspension in a circular region for 30 min (similar to slide preparation for PPFC-based binding studies) and then gently washed with 1×PBS. PRP with AlexaFluor 488-conjugated fibrinogen (6% v/v of 1.5 mg/mL, green fluorescent) was briefly mixed with α-thrombin and 0.5 M CaCl2), to final concentrations of 5 nM and […] respectively, to initiate clot formation and the mixture was pipetted (100 μl volume) onto the collagen-coated surface region. The clot was allowed to incubate for 1 h and then gently washed with 1×PBS to remove loosely bound components. The slide thus formed with platelet-rich green fluorescent fibrin clot on its surface, was sealed into the parallel plate flow chamber (PPFC) system, to be imaged under the inverted fluorescence microscope. The objective was focused on an area at the edge of the clot such that the initial field of view enabled observation of the green fluorescence of the fibrin clot throughout the whole area of view, and the clot lysis could then be observed as the loss of this fluorescence. […] In this experimental set-up, sPLA2-triggered degradation of clot-bound PMIN vesicles and resultant SK release was expected to convert the plasminogen to plasmin and thereby lyse the fibrin of the clot.

| Substance | activation of platelets by aggregometry (platelets) | delay in vessel occlusion [1] | time to clot lysis (loss of green fluorescence) [2] [min] |
| --- | --- | --- | --- |
| TRYLRIHPQSWVHQI-NH2 [VBP] | inability of both VBP and CBP to activate platelets | – | – |
| streptokinase [free SK] | – | keeps the artery significantly open due to persistent thrombolysis | ≤ 15 |
